These are literature values, as cited in patent publication US20110045550A1, “Fission Yeast Expressing Cytochrome P450 Reductase” (priority 2007, published 2011).

Data set [1] has as its target human P-glycoprotein ATPases (ABCB1 subfamily) (Homo sapiens, UniProt P08183).
For data set [2] the following is noted: pH=8.5.

Chain of human P-glycoprotein ATPases (ABCB1 subfamily) (P08183 whole entry): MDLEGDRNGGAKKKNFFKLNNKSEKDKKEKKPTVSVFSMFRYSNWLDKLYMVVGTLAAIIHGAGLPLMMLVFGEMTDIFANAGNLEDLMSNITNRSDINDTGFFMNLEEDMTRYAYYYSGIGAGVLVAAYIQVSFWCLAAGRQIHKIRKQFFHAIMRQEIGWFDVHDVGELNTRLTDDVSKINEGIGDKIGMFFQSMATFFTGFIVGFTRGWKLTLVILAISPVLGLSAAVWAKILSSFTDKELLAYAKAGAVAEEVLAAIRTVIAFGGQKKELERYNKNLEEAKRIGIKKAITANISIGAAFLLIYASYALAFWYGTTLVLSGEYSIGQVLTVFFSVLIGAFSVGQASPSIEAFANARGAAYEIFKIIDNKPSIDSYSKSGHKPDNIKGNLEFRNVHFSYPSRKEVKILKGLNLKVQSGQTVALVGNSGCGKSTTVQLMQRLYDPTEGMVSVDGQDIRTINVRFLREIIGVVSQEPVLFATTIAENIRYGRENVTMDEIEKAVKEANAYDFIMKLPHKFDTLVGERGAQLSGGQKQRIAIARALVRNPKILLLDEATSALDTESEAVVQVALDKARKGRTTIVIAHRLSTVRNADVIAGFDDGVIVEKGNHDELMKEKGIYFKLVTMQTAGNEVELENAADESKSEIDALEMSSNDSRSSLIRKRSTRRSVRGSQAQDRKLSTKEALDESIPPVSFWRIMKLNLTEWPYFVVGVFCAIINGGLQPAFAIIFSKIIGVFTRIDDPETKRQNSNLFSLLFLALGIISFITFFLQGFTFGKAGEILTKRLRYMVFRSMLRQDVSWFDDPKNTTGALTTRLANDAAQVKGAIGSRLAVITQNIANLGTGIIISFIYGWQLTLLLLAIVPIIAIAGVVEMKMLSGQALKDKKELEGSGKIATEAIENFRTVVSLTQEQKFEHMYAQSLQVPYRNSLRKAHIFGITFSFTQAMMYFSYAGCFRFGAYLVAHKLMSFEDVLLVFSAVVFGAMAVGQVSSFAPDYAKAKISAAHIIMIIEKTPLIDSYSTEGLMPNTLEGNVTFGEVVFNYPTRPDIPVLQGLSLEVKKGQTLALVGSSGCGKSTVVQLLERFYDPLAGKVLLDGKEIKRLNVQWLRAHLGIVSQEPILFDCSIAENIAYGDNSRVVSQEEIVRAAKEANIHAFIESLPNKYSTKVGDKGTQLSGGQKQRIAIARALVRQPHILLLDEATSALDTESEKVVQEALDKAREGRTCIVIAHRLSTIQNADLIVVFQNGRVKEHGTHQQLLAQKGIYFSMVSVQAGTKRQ

For the compound `CC(NC(C)(C)C)C(=O)c1cccc(Cl)c1` (stereo not drawn) [bupropion], the “substrate for human P-glycoprotein” value in data set [1] is on record as “weak substrate”. For `Cc1ncc2n1-c1ccc(Cl)cc1C(c1ccccc1F)=NC2` [midazolam], the “substrate for human P-glycoprotein” value in data set [1] was “very good substrate”. Besides, in data set [2], the solubility result was “around 150 μM”.
